From patent US20040166137A1, “Hetero-substituted benzimidazole compounds and antiviral uses thereof” (priority 2002, published 2004)

Legend:
rhinoviruses = conditions: cited from earlier work
[1] = XTT cytotoxicity assay on uninfected Hep2 cells; assay type: cell-based; conditions: human
Method: Uninfected confluent monolayers (seeded at 2.2×10^4 cells/well) of Hep2 cells were grown in microtiter wells (96-well plates) in EMEM (Eagle Minimum Essential Medium w/o L-glutamine [Bio Whittaker Cat. No. 12-125F] with 3% fetal bovine serum (FBS; which had been heat inactivated for 30 minutes at 56° C.; Bio Whittaker Cat. No. 14-501F), antibiotics (penicillin/streptomycin; Bio Whittaker Cat. No. 17-602E) added at 1%, and glutamine added at 1% (complete EMEM). The plates were incubated for 24 hours and used for antiviral assays and cytotoxicity assays.
Cytotoxicity assays were conducted by first removing all medium from the well containing uninfected Hep2 cells, adding 100 μl complete EMEM, and then adding hetero-substituted benzimidazole compounds (eight 3-fold dilutions with 100 μM concentration as the highest final concentration). Complete EMEM (50 μl) was added to each well instead of virus and the plates were incubated in a CO2 incubator at 37° C. for 48 hours.
At 48 hours, the cytotoxicity assays were developed by adding to each well 50 μl of XTT (1 mg/ml in PBS) containing 0.01-0.02 mM of the electron coupling agent phenazine methosulfate (PMS). The plates were incubated for 2-4 hours at 37° C. and then read in a 96-well plate reader at 450 nm. Plotting the % average OD of treated wells compared to the cell control vs. compound concentration generated dose response curves. CC50 (50% inhibitory cytotoxic concentration) values for each compound were then calculated from these curves. […]

RSV = assay: Antiviral assay (PRA): inhibition of RSV syncytial plaque formation on Hep2 cell monolayers; assay type: cell-based; conditions: human respiratory syncytial virus, HEp-2; Table 2; RSV-infected Hep2 cells, 48 hours, syncytia counted; read-out: PRA (IC50)
Method: The lower the observed level of fusion, the greater the antiviral activity of the compound was determined to be. Uninfected confluent monolayers (seeded at 2.2×10^4 cells/well) of Hep2 cells were grown in microtiter wells (96-well plates) in EMEM (Eagle Minimum Essential Medium w/o L-glutamine [Bio Whittaker Cat. […] Bio Whittaker Cat. No. 14-[…]), antibiotics (penicillin/streptomycin; Bio Whittaker Cat. […] The plates were incubated for 24 hours and used for antiviral assays and cytotoxicity assays. To prepare Hep2 cells for addition to uninfected cells, cultures of […] infected Hep2 cells were washed with DPBS (Dulbecco's Phosphate Buffered Saline w/o calcium or magnesium; Bio Whittaker Cat. […] Gibco Life Technologies Cat. No. 15040-017). The cells were spun for 10 minutes and resuspended in 3% FBS. Cell counts were performed using a hemacytometer. Persistent cells were added to the uninfected Hep2 cells. The antiviral assay was conducted by first removing all medium from the wells containing uninfected Hep2 cells, adding 100 μl complete EMEM, then adding hetero-substituted benzimidazole compounds (eight 3-fold dilutions with 20 μM concentration as the highest final concentration) in 50 μl complete EMEM. Approximately 50 […] plaque forming units (PFU) of RSV in 50 μl was added per well and the plates were incubated in a CO2 incubator at 37° C. for 48 hours. Each plate contained uninfected control wells and infected untreated control wells for calculation of % inhibition (EC50) for each concentration. After incubation, cells in control wells were checked for fusion centers, medium was removed from the wells followed by addition to each well of either Crystal Violet stain or XTT. With respect to Crystal Violet, approximately 50μl 0.25% Crystal Violet stain in methanol was added to each well. The wells were rinsed immediately, to remove excess stain, and were allowed to dry. The number of syncytia per well were then counted, using a dissecting microscope. For antiviral assays at 48 hours post infection, cells in control wells were checked for syncytial plaques. Medium was removed from the wells followed by addition of approximately 50 Al Crystal Violet stain (0.25% Crystal Violet, 0.25% Giemsa dissolved in 10% formaldehyde, 70% methanol, and 20% H2O). The wells were incubated at room temperature for 5 minutes, rinsed with H2O to remove excess stain, and allowed to dry. The number of syncytia per well were counted using a dissecting microscope. The 50% inhibitory concentration (EC50) for each compound was calculated from the dose response curve. The compounds listed in Tables 1-2 have been screened for inhibitory activity against RSV.

Compound	inhibition of the cytopathic effect (rhinoviruses)	CC50 at 48 h [1]	IC50 (RSV)
COc1ccc2nc[nH]c2c1 [5-methoxybenzimidazole]	100%		
Cc1nn(C)c(Cl)c1S(=O)(=O)N1CCN(Cc2nc3cccnc3n2Cc2nc3ccccc3[nH]2)CC1 [compound 29, 3-(1H-Benzoimidazol-2-ylmethyl)-2-[4-(5-chloro-1,3-dimethyl-1H-pyrazole-4-sulfonyl)-piperazin-1-ylmethyl]-3H-imidazo[4,5-b]pyridine]		≥ 100000 nM	200 nM
O=S(=O)(c1ccc(F)cc1F)N1CCN(Cc2nc3cccnc3n2Cc2nc3ccccc3[nH]2)CC1 [compound 30, 3-(1H-Benzoimidazol-2-ylmethyl)-2-[4-(2,4-difluoro-benzenesulfonyl)-piperazin-1-ylmethyl]-3H-imidazo[4,5-b]pyridine]		≥ 100000 nM	10 nM
O=S(=O)(c1ccsc1)N1CCN(Cc2nc3cccnc3n2Cc2nc3ccccc3[nH]2)CC1 [compound 31, 3-(1H-Benzoimidazol-2-ylmethyl)-2-[4-(thiophene-3-sulfonyl)-piperazin-1-ylmethyl]-3H-imidazo[4,5-b]pyridine]		≥ 100000 nM	10 nM
